Read-outs that look alike come from different tables or passages of the source.
Legend:
Calu-6 = experiment: Cell proliferation-inhibiting activity (ATP in viable cells, CellTiter-Glo), Calu-6; type: cell-based, human; details: read-out: Calu-6 IC50
MEK1 = target: T1, MEK1 (Homo sapiens, UniProt Q02750); experiment: MEK1-inhibiting activity, fluorescent polarization method (CRAF/MEK1/ERK2 cascade, IMAP); type: biochemical
T1 construct: purchased Thermo Fisher Scientific Inc. (MEK1, CRAF); Carna Biosciences, Inc. (ERK2)
Experimental: The MEK1-inhibiting activity of the compounds listed in Table 3 below were evaluated by the fluorescent polarization method as described below.

A549 = experiment: Cell proliferation-inhibiting activity (ATP in viable cells, CellTiter-Glo), A549; type: cell-based, human; details: read-out: A549 IC50
BRAF = target: T2, BRAF (Homo sapiens, UniProt P15056); experiment: BRAF-inhibiting activity, time-resolved fluorescence-fluorescence resonance energy transfer assay; type: biochemical
T2 construct: purchased Eurofins Genomics KK; (BRAF); Thermo Fisher Scientific Inc. (MEK1)
Experimental: The BRAF-inhibiting activity of the compounds listed in Table 3 below was evaluated by the time-resolved fluorescence-fluorescence resonance energy transfer assay as described below.

[1] = Human liver microsome stability; type: in vitro ADME; details: human liver microsomes, pH 7.4
NCI-H2122 = experiment: Cell proliferation-inhibiting activity (ATP in viable cells, CellTiter-Glo), NCI-H2122; type: cell-based, human; details: read-out: NCI-H2122 IC50
[2] = Calu-6, 96 h, human lung cancer cells, 4 days
[3] = A549, 96 h, human lung cancer cells, 4 days
[4] = NCI-H2122, 96 h, human lung cancer cells, 4 days
[5] = human lung cancer cells, 4 days

T1 sequence (Q02750 whole entry): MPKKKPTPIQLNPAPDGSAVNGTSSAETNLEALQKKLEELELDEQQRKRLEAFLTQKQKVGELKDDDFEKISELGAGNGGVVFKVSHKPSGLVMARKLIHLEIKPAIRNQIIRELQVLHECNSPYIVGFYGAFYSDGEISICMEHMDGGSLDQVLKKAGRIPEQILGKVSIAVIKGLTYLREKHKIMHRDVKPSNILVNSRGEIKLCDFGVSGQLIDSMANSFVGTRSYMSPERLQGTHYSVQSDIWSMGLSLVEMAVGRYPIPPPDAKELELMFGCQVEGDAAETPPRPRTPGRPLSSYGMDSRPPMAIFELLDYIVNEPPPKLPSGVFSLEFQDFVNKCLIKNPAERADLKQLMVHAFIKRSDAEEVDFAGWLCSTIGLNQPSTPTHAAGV
T2 sequence (P15056 417-766 limits assumed): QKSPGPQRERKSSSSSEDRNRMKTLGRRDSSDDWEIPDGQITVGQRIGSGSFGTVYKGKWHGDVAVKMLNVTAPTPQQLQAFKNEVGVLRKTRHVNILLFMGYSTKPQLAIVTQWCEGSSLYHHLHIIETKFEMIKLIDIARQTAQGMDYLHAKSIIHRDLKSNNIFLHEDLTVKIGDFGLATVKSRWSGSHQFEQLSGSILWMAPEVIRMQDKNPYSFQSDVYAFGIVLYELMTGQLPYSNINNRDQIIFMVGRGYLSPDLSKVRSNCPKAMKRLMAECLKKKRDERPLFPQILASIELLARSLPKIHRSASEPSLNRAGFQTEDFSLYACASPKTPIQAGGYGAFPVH

SMILES | IC50 (Calu-6; [2]) [nM] | IC50 (MEK1; Table 3, read-out: MEK1 IC50) [nM] | IC50 (A549; [3]) [nM] | IC50 (BRAF; read-out: BRAF IC50; Table 3) [nM] | microsomal CLint at 0.99 µM [1] [µL/min/mg] | IC50 (NCI-H2122; [4]) [nM] | IC50 (MEK1) [nM] | IC50 (BRAF; Table 3; read-out: BRAF IC50) [nM] | IC50 (Calu-6; Homo sapiens, Calu-6, 96 h) [nM] | IC50 (A549; Homo sapiens, A549, 96 h) [nM] | IC50 (NCI-H2122; Homo sapiens, NCI-H2122, 96 h) [nM] | IC50 (Calu-6; [5]) [nM] | IC50 (A549; [5]) [nM] | IC50 (NCI-H2122; [5]) [nM]
CNS(=O)(=O)Nc1nccc(Cc2cc(C(=O)NC3CC3C)c(Nc3ccc(I)cc3F)c(F)c2F)c1F (mixture of isomers) [Compound B-3, 3,4-Difluoro-2-(2-fluoro-4-iodoanilino)-5-[[3-fluoro-2-(methylsulfamoylamino)pyridin-4-yl]methyl]-N-(2-methylcyclopropyl)benzamide (mixture of 4 isomers)] | 14 | 82 | 2 | 4 | 22 | 1 | – | – | – | – | – | – | – | –
CNS(=O)(=O)Nc1nccc(Cc2cc(C(=O)N[C@H]3C[C@H]3C)c(Nc3ccc(I)cc3F)c(F)c2F)c1F (racemic) [Compound B-4, 3,4-Difluoro-2-(2-fluoro-4-iodoanilino)-5-[[3-fluoro-2-(methylsulfamoylamino)pyridin-4-yl]methyl]-N-[(1S, 2R)-(+/-)-2-methylcyclopropyl]benzamide (racemate)] | 6 | – | 2 | – | 28 | 1 | 19 | 5 | – | – | – | – | – | –
CNS(=O)(=O)Nc1nccc(Cc2cc(C(=O)N[C@@H]3C[C@H]3C)c(Nc3ccc(I)cc3F)c(F)c2F)c1F (racemic) [Compound B-5, 3,4-Difluoro-2-(2-fluoro-4-iodoanilino)-5-[[3-fluoro-2-(methylsulfamoylamino)pyridin-4-yl]methyl]-N-[(1R, 2R)-(+/-)-2-methylcyclopropyl]benzamide (racemate)] | 29 | – | 7 | – | 22 | 5 | 93 | 6 | – | – | – | – | – | –
CNS(=O)(=O)Nc1nccc(Cc2cc(C(=O)NC3CC3(F)F)c(Nc3ccc(I)cc3F)c(F)c2F)c1F (racemic) [Compound B-6, (+/-)-N-(2,2-Difluorocyclopropyl)-3,4-difluoro-2-(2-fluoro-4-iodoanilino)-5-[[3-fluoro-2-(methylsulfamoylamino)pyridin-4-yl]methyl]benzamide (racemate)] | 16 | – | 2 | – | 20 | 1 | 97 | 15 | – | – | – | – | – | –
CNS(=O)(=O)Nc1nccc(Cc2cc(C(N)=O)c(Nc3ccc(C4CC4)cc3F)c(F)c2F)c1F [Compound A-1, 2-(4-cyclopropyl-2-fluoroanilino)-3,4-difluoro-5-[[3-fluoro-2-(methylsulfamoylamino)pyridin-4-yl]methyl]benzamide] | – | 17 | – | – | 1 | – | – | 1 | 64 | 26 | 5 | – | – | –
NS(=O)(=O)Nc1nccc(Cc2cc(C(=O)NC3CC3)c(Nc3ccc(I)cc3F)c(F)c2F)c1F [Compound A-3, N-Cyclopropyl-3,4-difluoro-2-(2-fluoro-4-iodoanilino)-5-[[3-fluoro-2-(sulfamoylamino)pyridin-4-yl]methyl]benzamide] | 28 | 31 | 25 | 5 | 10 | 13 | – | – | – | – | – | – | – | –
CCNS(=O)(=O)Nc1nccc(Cc2cc(C(=O)NC3CC3)c(Nc3ccc(I)cc3F)c(F)c2F)c1F [Compound A-4, N-cyclopropyl-5-[[2-(ethylsulfamoylamino)-3-fluoropyridin-4-yl]methyl]-3,4-difluoro-2-(2-fluoro-4-iodoanilino)benzamide] | 7 | 17 | 5 | 2 | 21 | 1 | – | – | – | – | – | – | – | –
O=C(NC1CC1)c1cc(Cc2ccnc(NS(=O)(=O)NC3CC3)c2F)c(F)c(F)c1Nc1ccc(I)cc1F [Compound A-5, N-Cyclopropyl-5-[[2-(cyclopropylsulfamoylamino)-3-fluoropyridin-4-yl]methyl]-3,4-difluoro-2-(2-fluoro-4-iodoanilino)benzamide] | 12 | 10 | 5 | 5 | 36 | 1 | – | – | – | – | – | – | – | –
O=C(NC1CC1)c1cc(Cc2ccnc(NS(=O)(=O)NCCF)c2F)c(F)c(F)c1Nc1ccc(I)cc1F [Compound A-6, N-cyclopropyl-3,4-difluoro-5-[[3-fluoro-2-(2-fluoroethylsulfamoylamino)pyridin-4-yl]methyl]-2-(2-fluoro-4-iodoanilino)benzamide] | 19 | 12 | 17 | 10 | 20 | 3 | – | – | – | – | – | – | – | –
CNC(=O)c1cc(Cc2ccnc(NS(=O)(=O)NC)c2F)c(F)c(F)c1Nc1ccc(I)cc1F [Compound A-7, 3,4-Difluoro-2-(2-fluoro-4-iodoanilino)-5-[[3-fluoro-2-(methylsulfamoylamino)pyridin-4-yl]methyl]-N-methylbenzamide] | 18 | 18 | 2 | 5 | 28 | 1 | – | – | – | – | – | – | – | –
CNS(=O)(=O)Nc1nccc(Cc2cc(C(=O)NOC(C)(C)C)c(Nc3ccc(I)cc3F)c(F)c2F)c1F [Compound A-8, 3,4-difluoro-2-(2-fluoro-4-iodoanilino)-5-[[3-fluoro-2-(methylsulfamoylamino)pyridin-4-yl]methyl]-N-[(2-methylpropan-2-yl)oxy]benz amide] | 2 | 3 | 0.4 | 4 | 33 | 0.1 | – | – | – | – | – | – | – | –
COCCNS(=O)(=O)Nc1nccc(Cc2cc(C(=O)NOC(C)(C)C)c(Nc3ccc(I)cc3F)c(F)c2F)c1F [Compound A-9, 3,4-Difluoro-2-(2-fluoro-4-iodoanilino)-5-[[3-fluoro-2-(2-methoxyethylsulfamoylamino)pyridin-4-yl]methyl]-N-[(2-methylpropan-2-yl)oxy]be nzamide] | 7 | 4 | 2 | 4 | 56 | 0.4 | – | – | – | – | – | – | – | –
CC(C)ONC(=O)c1cc(Cc2ccnc(NS(=O)(=O)NC3(C)CCC3)c2F)c(F)c(F)c1Nc1ccc(I)cc1F [Compound A-12, 3,4-Difluoro-2-(2-fluoro-4-iodoanilino)-5-[[3-fluoro-2-[(1-methylcyclobutyl)sulfamoylamino]pyridin-4-yl]methyl]-N-propan-2-yloxybenzamide] | 18 | 13 | 6 | 6 | 121 | 5 | – | – | – | – | – | – | – | –
CNS(=O)(=O)Nc1nccc(Cc2cc(C(=O)NOC)c(Nc3ccc(I)cc3F)c(F)c2F)c1F [Compound A-13, 3,4-difluoro-2-(2-fluoro-4-iodoanilino)-5-[[3-fluoro-2-(methylsulfamoylamino)pyridin-4-yl]methyl]-N-methoxybenzamide] | 3 | 1 | 1 | 3 | 31 | 0.3 | – | – | – | – | – | – | – | –
COCCNS(=O)(=O)Nc1nccc(Cc2cc(C(=O)NOC)c(Nc3ccc(I)cc3F)c(F)c2F)c1F [Compound A-14, 3,4-Difluoro-2-(2-fluoro-4-iodoanilino)-5-[[3-fluoro-2-(2-methoxyethylsulfamoylamino)pyridin-4-yl]methyl]-N-methoxybenzamide] | 27 | 2 | 11 | 3 | 39 | 1 | – | – | – | – | – | – | – | –
CONC(=O)c1cc(Cc2ccnc(NS(=O)(=O)NC3(C)CCC3)c2F)c(F)c(F)c1Nc1ccc(I)cc1F [Compound A-15, 3,4-difluoro-2-(2-fluoro-4-iodoanilino)-5-[[3-fluoro-2-[(1-methylcyclobutyl)sulfamoylamino]pyridin-4-yl]methyl]-N-methoxybenzamide] | 5 | 8 | 2 | 4 | 57 | 1 | – | – | – | – | – | – | – | –
CCS(=O)(=O)Nc1cccc(Cc2cc(C(=O)NOC(C)(C)C)c(Nc3ccc(I)cc3F)n(C)c2=O)c1F [Compound K-9] | – | 23 | – | – | – | – | – | 8 | – | – | – | 34 | 17 | 8
NC(=O)c1c(Nc2ccc(I)cc2F)cncc1Oc1cccc(NS(=O)(=O)C2CC2)c1 [Ref-4, reference compound] | 18 | 11 | 2 | – | 32 | 2 | – | – | – | – | – | – | – | –
CNS(=O)(=O)Nc1nccc(Cc2c(C)c3ccc(Oc4ncccn4)cc3oc2=O)c1F [Ref-5, 3-[[3-Fluoro-2-(methylsulfamoylamino)pyridin-4-yl]methyl]-4-methyl-7-pyrimidin-2-yloxychromen-2-one, reference compound] | 418 | – | 113 | 11 | < 1 | 27 | – | – | – | – | – | – | – | –

— EP4725941A1, “ARYLAMIDE DERIVATIVE HAVING ANTITUMOR ACTIVITY” (priority 2020, dated 2021)
